Laboratory results reported in patent US20070093554A1, “AGENT FOR IMPROVING FEELING OF COLD” (priority 2005, published 2007).

Test: Improvement in feeling of cold evaluated by Visual Analogue Scale (VAS) method after 3 weeks ingestion of tablets
Type: in vivo, human
Details: 6 tablets of example 1 a day for 3 weeks, normal subjects 45 to 64 years, vs tablet not containing ornithine; FIG. 2
Description: Before the ingestion and just after the ingestion, the improvements in feeling of cold of each subject were evaluated using Visual Analogue Scale (VAS) method.
Specifically each end of the segment has a criterion of expression. Referring to FIG. 1, each subject marked somewhere in the line, corresponding to each term of the questionnaires. The distance (mm) from the left end of the line to the marked point was measured and the difference between before and after the test was calculated. The difference by the value before the test was shown in the percentage calculated; and each average value and standard deviation for each group were calculated. […] Further, it was confirmed that there was no difference between two groups before the administration test.
Further the test was carried out under a random assignment and the comparison between the double blind parallel groups was carried out. The test of the statistically significant difference between two groups was an unpaired t-test of both side distributions using the difference between the beginning and just after the test.

NCCC[C@H](N)C(=O)O [ornithine]
coldness of hands and feet (improvement, VAS): improved remarkably
